Structures are written as SMILES.

For one data set, the system named is Alcohol metabolism. Briefly: Alcohol metabolism test: ethanol content in venous blood after composition and ethanol feeding. Format: in vivo, mice. As to conditions: for Percentage decrease compared to comparative group: decrease of venous blood ethanol content versus physiological saline group (75.0 mg/100 mL); for Ethanol content: venous blood 1 hour after 2 mL of 5% edible ethanol, 2 mL composition solution (4.5 g in 15 mL physiological saline) fed 1 hour before ethanol, 7 animals per group, GC-FID. As to the method: The test was divided into test groups and comparative groups. Each group included 7 healthy animals (e.g., mice). The healthy animals were fed in the laboratory for 10 days to adapt to the test environment, and then fasting was maintained 12 hours before the start of the test.
4.5 g of the compositions obtained in preparation examples 10-31 and comparative examples 1-8 were respectively dissolved in 15 mL of physiological saline to prepare composition solutions. The animals in the test groups were fed with 2 mL of the composition solution respectively, and the animals in the comparative group were fed with the same dose of normal saline. 1 hour later, the animals in the test groups and the comparative groups were fed with 2 mL of 5% edible ethanol, respectively. 1 hour later, the venous blood of the animals was collected. The ethanol content in the venous blood was detected by a gas chromatography-hydrogen flame ionization detector.

Data set [1] can be described thus: Dissolution of calcium glycerate forms in water at 37±0.2° C. (FIG. 9). Format: physicochemical. The conditions noted are these: comparison between forms.

As for `O=C(O)[C@H](O)CO` [compound 1, D-glyceric acid], in the data set with Alcohol metabolism, the “Percentage decrease compared to comparative group” value is recorded as 14.8% and the Ethanol content is 63.9 mg/100 mL.

Take `O=C(O)[C@H](O)CO` [compound 5, D-glyceric acid]: in the data set with Alcohol metabolism, the “Percentage decrease compared to comparative group” value is reported as 15.2% and the Ethanol content was 63.6 mg/100 mL.

In the case of `O=C([O][Ca][O]C(=O)[C@H](O)CO)[C@H](O)CO` [crystalline Form II, calcium D-glycerate], in data set [1], the dissolution rate entry is recorded as “faster than that of crystalline Form I”.

Source of the values: patent US20240270760A1, “GLYCERIC ACID, GLYCERATE, AND COMPOSITION THEREOF” (INNER MONGOLIA KINGDOMWAY PHARMACEUTICAL CO., LTD., priority 2023, published 2024).
